{
  "source": "patent US20230233584A1",
  "about": "“EXTENDED RELEASE 5-HT RECEPTOR AGONISTS FOR NEUROLOGICAL CONDITIONS” (Diamond Therapeutics Inc., priority 2020, published 2023)",
  "tested_on": "Long Evans rats",
  "test": "Progressive ratio (PR) test, Study B",
  "type": "in vivo",
  "details": "0.025 mg/kg, rats",
  "procedure": "General: Experiments were conducted to test psilocybin doses in the range of 0.01-0.2 mg/kg psilocybin administered S.C. across progressive ratio (PR) and 5-choice serial reaction time task (5CSRTT) to examine the effect of psilocybin on endophenotypes of motivation and attention. In each study, a population of out-bred Long Evans rats was first tested as a group for response to the PR and 5CSRTT. Each group was then divided into subgroups by tertiles according to performance, and then exposed to various dose levels immediately prior to re-testing at various psilocybin dose levels.\nThe PR test is used to answer how willing the test subject is to work for food (i.e. test of motivation). A single 45 mg food pellet (i.e. reinforcer) is made available to the test animal based on lever press response. To obtain each successive pellet, the animal must make increasingly more lever presses. Typically, a progression of 2, 4, 6, 9, 12, 15, 20, 25, 32, 40, 50, 62, 77, 95, 118, etc. is used, derived from the equation:\nratio=[5×e^(0.2×reinforcer #)−5]\nAt some point, the animal gives up as the motor demands to obtain a single pellet are not deemed worthwhile (i.e. animal reaches “break point” defined as animal's failure to earn a food pellet in 20 minutes).\nStudy B: Based on Study 1 outcome, a follow-up PR study was conducted utilizing a larger cohort size (72 rats total), and incorporating a lower dose of psilocybin (0.025 mg/kg SC) (FIG. 2C and FIG. 2D). […] Separation of rats based on the lowest average break point recorded over the 7 days prior to testing identified a “low responder” subgroup of N=24 rats. […] There was no treatment effect on session duration (F3,69=2.4; P=0.07, NS), although there was trend for this to be increased at the 0.1 mg/kg dose (Veh: 15.1+2.0 min; Psilo 0.1 mg/kg: 18.7+2.5 min).",
  "data": [
    {"smiles": "CCN(CC)C(=O)[C@@H]1C=C2c3cccc4[nH]cc(c34)C[C@H]2N(C)C1", "note": "[LSD, D-lysergic acid diethylamide]", "values": [
      {"measurement": "effect in PR test at lowest dose tested", "value": "no significant effect"}
    ]}
  ]
}
